Earlier results, collected in patent publication US8017624B2, “Fused aminopiperidines as dipeptidyi peptidase-IV inhibitors for the treatment or prevention of diabetes” (Merck Sharp & Dohme Corp., priority 2005, dated 2011).

Experiments:
[1] = system: cardiac allograft survival; settings: rats; Transplantation 63: 1495-1500 (1997)
[2] = system: hematopoiesis; settings: mouse, cyclophosphamide-induced neutropenia; WO 99/56753
[3] = molecular target: T1, DPP-IV (Homo sapiens, UniProt P27487)
T1 construct: GRF is rapidly degraded in plasma to GRF[3-44]
T1 sequence (P27487 whole entry, species assumed): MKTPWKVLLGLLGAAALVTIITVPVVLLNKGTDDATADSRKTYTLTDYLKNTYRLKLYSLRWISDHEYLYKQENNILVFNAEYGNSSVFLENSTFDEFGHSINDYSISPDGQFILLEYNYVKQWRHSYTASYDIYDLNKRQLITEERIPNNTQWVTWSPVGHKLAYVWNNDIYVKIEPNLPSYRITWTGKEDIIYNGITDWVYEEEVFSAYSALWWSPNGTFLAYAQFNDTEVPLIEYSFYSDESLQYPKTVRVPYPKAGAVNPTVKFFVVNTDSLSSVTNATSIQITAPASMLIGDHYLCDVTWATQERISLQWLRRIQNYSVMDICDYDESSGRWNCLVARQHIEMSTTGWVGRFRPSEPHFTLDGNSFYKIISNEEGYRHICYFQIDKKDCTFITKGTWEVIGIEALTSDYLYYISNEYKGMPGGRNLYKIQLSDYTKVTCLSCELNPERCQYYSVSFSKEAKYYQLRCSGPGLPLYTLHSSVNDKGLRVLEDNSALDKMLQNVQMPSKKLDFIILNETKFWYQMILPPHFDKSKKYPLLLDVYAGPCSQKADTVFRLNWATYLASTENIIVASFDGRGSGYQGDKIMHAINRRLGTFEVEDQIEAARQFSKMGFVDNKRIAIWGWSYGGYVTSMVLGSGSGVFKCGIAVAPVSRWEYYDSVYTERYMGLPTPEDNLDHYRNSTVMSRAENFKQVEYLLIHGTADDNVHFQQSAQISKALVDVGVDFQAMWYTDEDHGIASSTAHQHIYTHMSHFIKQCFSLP

CC(C)N1CCC(c2ccccc2)(c2ccccc2)CC1 [Prodipine, Pro-Pro-diphenyl-phosphonate]
cardiac allograft survival [1]: double cardiac allograft survival in rats from day 7 to day 14

CC(C)[C@H](N)C(=O)N1CCC[C@H]1B(O)O [Val-Boro-Pro]
effect on hematopoiesis [2]: stimulated hematopoiesis

CC[C@H](C)[C@H](N)C(=O)N1CCC[C@H]1C(=O)N[C@H](C(=O)O)[C@@H](C)CC [diprotin A]
degradation of GRF in plasma to GRF[3-44] [3]: prevented
